Where two headings read alike, the source gives them in different places.
Columns and labels:
human A2A receptors = target: T1, human A2A receptors (Homo sapiens, UniProt P29274); experiment: Functional human A2A receptor activity, recombinant HEK293 cells, cAMP (HTRF); type: cell-based
T1 construct: expressed in transfected cells; host or cells: HEK293
Protocol: (§1) The functional activities of human A2A and A2B receptors were determined by quantification of cAMP, being the second messenger for adenosine receptors.
(§2) After a 15 min incubation, HTRF reagents (cAMP dynamic 2, Cis Bio) were added and the cellular cAMP levels were determined using the ENVISION (Perkin Elmer) plate reader.

human A2B receptors = target: T2, human A2B receptors (Homo sapiens, UniProt P29275); experiment: Functional human A2B receptor activity, recombinant HEK293 cells, cAMP (HTRF); type: cell-based
T2 construct: expressed in transfected cells; host or cells: HEK293
T2 sequence (P29275 1-332): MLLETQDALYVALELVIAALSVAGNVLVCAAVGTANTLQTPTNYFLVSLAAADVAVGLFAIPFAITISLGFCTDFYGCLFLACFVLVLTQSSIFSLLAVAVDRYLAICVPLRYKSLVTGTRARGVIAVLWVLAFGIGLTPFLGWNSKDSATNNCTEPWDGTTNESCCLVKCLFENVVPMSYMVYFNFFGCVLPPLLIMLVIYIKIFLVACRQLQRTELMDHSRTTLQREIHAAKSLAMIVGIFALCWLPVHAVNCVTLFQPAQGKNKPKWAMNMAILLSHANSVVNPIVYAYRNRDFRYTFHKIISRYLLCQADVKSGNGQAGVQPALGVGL
Protocol: as §1, §2

T1 sequence (P29274 whole entry): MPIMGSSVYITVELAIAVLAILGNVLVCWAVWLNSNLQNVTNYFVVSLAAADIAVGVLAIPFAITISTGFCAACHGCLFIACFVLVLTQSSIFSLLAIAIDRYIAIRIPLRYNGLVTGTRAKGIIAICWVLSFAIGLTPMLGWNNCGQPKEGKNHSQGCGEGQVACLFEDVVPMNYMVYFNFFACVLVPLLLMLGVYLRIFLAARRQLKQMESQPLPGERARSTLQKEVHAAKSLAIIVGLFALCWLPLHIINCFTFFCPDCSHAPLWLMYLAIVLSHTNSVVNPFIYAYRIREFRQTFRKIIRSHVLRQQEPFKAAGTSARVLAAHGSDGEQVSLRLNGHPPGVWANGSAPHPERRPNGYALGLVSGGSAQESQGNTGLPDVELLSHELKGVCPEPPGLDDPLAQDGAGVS

SMILES | IC50 (human A2A receptors; read-out: A2A (Category)) | IC50 (human A2B receptors; read-out: A2B (Category)) | IC50 (human A2A receptors; read-out: Functional A2A receptor activity, HEK293, cAMP, IC50) | IC50 (human A2B receptors; read-out: Functional A2B receptor activity HEK293, cAMP IC50)
O=C(c1cc2c(cn1)c(-c1cnn3ccccc13)nn2CC(F)(F)F)N1CC2CCC(C1)O2 [Compound 99, (8-Oxa-3-aza-bicyclo[3.2.1]oct-3-yl)-[3-pyrazolo[1,5-a]pyridin-3-yl-1-(2,2,2-trifluoro-ethyl)-1H-pyrazolo[4,3-c]pyridin-6-yl]-methanone] | < 100 nM | < 1000 nM | – | –
O=C(c1cc2c(cn1)c(-c1cnc3ccc(F)cn13)nn2CC(F)(F)F)N1[C@@H]2CC[C@H]1C[C@@H](O)C2 [Compound 86, [3-(6-fluoroimidazo[1,2-a]pyridin-3-yl)-1-(2,2,2-trifluoroethyl)pyrazolo[4,3-c]pyridin-6-yl]-(3-endo-hydroxy-8-azabicyclo[3.2.1]octan-8-yl)methanone] | < 100 nM | < 100 nM | – | –
O=C(c1cc2c(cn1)c(-c1cnc3c(F)cc(F)cn13)nn2CC(F)(F)F)N1CCC(O)CC1 [Compound 132, [3-(6,8-Difluoro-imidazo[1,2-a]pyridin-3-yl)-1-(2,2,2-trifluoro-ethyl)-1H-pyrazolo[4,3-c]pyridin-6-yl]-(4-hydroxy-piperidin-1-yl)-methanone] | < 100 nM | < 100 nM | – | –
COCn1nc(-c2cnc3ccc(F)cn23)c2cnc(C(=O)N3CCCCCC3)cc21 [Compound 6, Azepan-1-yl-[3-(6-fluoro-imidazo[1,2-a]pyridin-3-yl)-1-methoxymethyl-1H-pyrazolo[4,3-c]pyridin-6-yl]-methanone] | < 100 nM | < 1000 nM | – | –
COCC1CCCN1C(=O)c1cc2c(cn1)c(-c1coc3ccccc13)nn2CS(C)(=O)=O (stereo not drawn) [Compound 34, (3-Benzofuran-3-yl-1-methanesulfonylmethyl-1H-pyrazolo[4,3-c]pyridin-6-yl)-(2-methoxymethyl-pyrrolidin-1-yl)-methanone] | < 100 nM | < 1000 nM | – | –
O=C(c1cc2c(cn1)c(-c1cnn3ccccc13)nn2CC(F)(F)F)N1[C@@H]2CC[C@H]1C[C@@H](O)C2 [Compound 113, (3-endo-hydroxy-8-azabicyclo[3.2.1]octan-8-yl)-[3-pyrazolo[1,5-a]pyridin-3-yl-1-(2,2,2-trifluoroethyl)pyrazolo[4,3-c]pyridin-6-yl]methanone] | < 100 nM | < 100 nM | – | –
O=C(c1cc2c(cn1)c(-c1c[nH]c3ccc(F)cc13)nn2CC(F)(F)F)N1CCCOCC1 [Compound 123, [3-(5-fluoro-1H-indol-3-yl)-1-(2,2,2-trifluoroethyl)pyrazolo[4,3-c]pyridin-6-yl]-(1,4-oxazepan-4-yl)methanone] | < 100 nM | < 100 nM | – | –
[2H]C1([2H])COCCN(C(=O)c2cc3c(cn2)c(-c2cnn4ccccc24)nn3CC(F)(F)F)C1 [Compound 121, (6,6-dideuterio-1,4-oxazepan-4-yl)-[3-pyrazolo[1,5-a]pyridin-3-yl-1-(2,2,2-trifluoroethyl)pyrazolo[4,3-c]pyridin-6-yl]methanone] | < 100 nM | < 100 nM | – | –
O=C(c1cc2c(cn1)c(-c1coc3ccccc13)nn2CC(F)(F)F)N1CCCCCC1 [Compound 90, Azepan-1-yl-[3-benzofuran-3-yl-1-(2,2,2-trifluoro-ethyl)-1H-pyrazolo[4,3-c]pyridin-6-yl]-methanone] | < 100 nM | < 100 nM | – | –
CC1(O)CC2CC1CN2C(=O)c1cc2c(cn1)c(-c1coc3ccccc13)nn2CC(F)(F)F (stereo not drawn) [Compound 211, [3-Benzofuran-3-yl-1-(2,2,2-trifluoro-ethyl)-1H-pyrazolo[4,3-c]pyridin-6-yl]-(5-endo-hydroxy-5-exo-methyl-2-aza-bicyclo[2.2.1]hept-2-yl)-methanone] | < 100 nM | < 1000 nM | – | –
O=C(c1ccc2c(-c3cnc4ccc(F)cn34)nn(CC(F)(F)F)c2c1)N1CCCCCC1 [analogue to No. 44, reference compound] | – | – | < 100 nM | < 1000 nM
C#CC1(O)C2CCC1CN(C(=O)c1cc3c(cn1)c(-c1coc4ccccc14)nn3CC(F)(F)F)C2 (stereo not drawn) [Compound 214] | < 100 nM | < 1000 nM | – | –
O=C(c1cc2c(cn1)c(-c1cnc3ccc(F)cn13)nn2CC(F)F)N1CCCCCC1 [Compound 3, Azepan-1-yl-[1-(2,2-difluoro-ethyl)-3-(6-fluoro-imidazo[1,2-a]pyridin-3-yl)-1H-pyrazolo[4,3-c]pyridin-6-yl]-methanone] | < 100 nM | < 100 nM | – | –
Cc1ccc2ncc(-c3nn(CC(F)(F)F)c4cc(C(=O)N5CCCCCC5)ncc34)n2c1 [Compound 61, Azepan-1-yl-[3-(6-methyl-imidazo[1,2-a]pyridin-3-yl)-1-(2,2,2-trifluoro-ethyl)-1H-pyrazolo[4,3-c]pyridin-6-yl]-methanone] | < 100 nM | < 1000 nM | – | –
NC(=O)c1ccc2ncc(-c3nn(CC(F)(F)F)c4cc(C(=O)N5CCCCCC5)ncc34)n2c1 [Compound 46, 3-[6-(Azepane-1-carbonyl)-1-(2,2,2-trifluoro-ethyl)-1H-pyrazolo[4,3-c]-pyridin-3-yl]-imidazo[1,2-a]pyridine-6-carboxylic acid amide] | < 100 nM | < 100 nM | – | –
[2H]C1([2H])COCCN(C(=O)c2cc3c(cn2)c(-c2coc4ccc(F)cc24)nn3CC(F)(F)F)C1 [Compound 120, [3-(5-fluorobenzofuran-3-yl)-1-(2,2,2-trifluoroethyl)pyrazolo[4,3-c]pyridin-6-yl]-(6,6-dideuterio-1,4-oxazepan-4-yl)methanone] | < 100 nM | < 100 nM | – | –
O=C(c1cc2c(cn1)c(-c1cnc3ccc(O)cn13)nn2CC(F)(F)F)N1[C@@H]2CC[C@H]1C[C@@H](O)C2 [Compound 88, (3-endo-hydroxy-8-azabicyclo[3.2.1]octan-8-yl)-[3-(6-hydroxyimidazo[1,2-a]pyridin-3-yl)-1-(2,2,2-trifluoroethyl)pyrazolo[4,3-c]pyridin-6-yl]methanone] | < 100 nM | < 1000 nM | – | –
N#CCn1nc(-c2cnc3ccc(F)cn23)c2cnc(C(=O)N3CCCCCC3)cc21 [Compound 7, [6-(Azepane-1-carbonyl)-3-(6-fluoro-imidazo[1,2-a]pyridin-3-yl)-pyrazolo[4,3-c]pyridin-1-yl]-acetonitrile] | < 100 nM | < 1000 nM | – | –
CS(=O)(=O)n1nc(-c2cnc3c(F)cc(F)cn23)c2cnc(C(=O)N3CCCOCC3)cc21 [Compound 10, [3-(6,8-Difluoro-imidazo[1,2-a]pyridin-3-yl)-1-methanesulfonyl-1H-pyrazolo[4,3-c]pyridin-6-yl]-1,4-oxazepan-4-yl-methanone] | < 100 nM | < 1000 nM | – | –
O=C(c1cc2c(cn1)c(-c1coc3ccc(F)cc13)nn2CC(F)(F)F)N1CCOCC(O)C1 (stereo not drawn) [Compound 118, [3-(5-fluorobenzofuran-3-yl)-1-(2,2,2-trifluoroethyl)pyrazolo[4,3-c]pyridin-6-yl]-(6-hydroxy-1,4-oxazepan-4-yl)methanone] | < 100 nM | < 100 nM | – | –
O=C(c1cc2c(cn1)c(-c1coc3ccccc13)nn2CC(F)(F)F)N1[C@@H]2CC[C@H]1C[C@@H](O)C2 [Compound 209, [3-Benzofuran-3-yl-1-(2,2,2-trifluoro-ethyl)-1H-pyrazolo[4,3-c]pyridin-6-yl]-(3-endo-hydroxy-8-aza-bicyclo[3.2.1]oct-8-yl)-methanone] | < 100 nM | < 100 nM | – | –
